The results in this text go back to US20230146675A1, “PYRIMIDO[5,4-d]PYRIMIDINE DERIVATIVES AS ENT INHIBITORS FOR THE TREATMENT OF CANCERS, AND COMBINATION THEREOF WITH ADENOSINE RECEPTOR ANTAGONISTS” (ITEOS BELGIUM SA, priority 2020, published 2023).

pIC50: −log10 of the molar value.

In test [1] the target is T1, Human phosphodiesterase-3A (Homo sapiens, UniProt Q14432).
T1 construct: host or cells: Sf9 cells
Briefly: PDE3A (h) assay. Format: biochemical. The method, then: (§1) The test compound (compound 72), reference compound or water (control) were added to a buffer containing 40 mM Tris/HCl (pH 7.4) and 8 mM MgCl2, 180 nM cAMP and 0.1 μCi [3H]cAMP. Thereafter, the reaction was initiated by addition of the enzyme (about 0.8 U) and the mixture was incubated for 20 min at 22° C. For basal control measurements, the enzyme was omitted from the reaction mixture. Following incubation SPA beads were added. After 30 min at 22° C. under shaking, the amount of [3H]5′AMP was quantified with a scintillation counter (MicroBeta, Perkin Elmer). The results were expressed as a percent inhibition of the control enzyme activity. The standard inhibitory reference compound was papaverine, which was tested in each experiment at several concentrations to obtain an inhibition curve from which its IC50 value was calculated. • Human phosphodiesterase-3A quantified by measuring the formation of 5′AMP from cAMP using a human recombinant enzyme expressed in Sf9 cells
The test compound (compound 72), reference compound or water (control) were added to a buffer containing 40 mM Tris/HCl (pH 7.4) and 8 mM MgCl2, 450 nM cAMP and 0.25 μCi [3H]cAMP. […] After 30 min at 22° C. under shaking, the amount of [3H]5′AMP was quantified with a scintillation counter (Topcount, Packard). The results were expressed as a percent inhibition of the control enzyme activity. […]

Test [2] deals with T2, Human phosphodiesterase-7A1 (Homo sapiens, UniProt Q13946).
T2 construct: host or cells: Sf9 cells
Briefly: PDE7A1 (h) assay. In kind it is biochemical. On the procedure:
The test compound (compound 72), reference compound or water (control) were added to a buffer containing 40 mM Tris/HCl (pH 7.4), 8 mM MgCl2 and 1.7 mM EGTA/NaOH, 1.8 μM cAMP and 1 μCi [3H]cAMP. Thereafter, the reaction was initiated by addition of the enzyme (about 2 ng) and the mixture was incubated for 15 min at 22° C. For basal control measurements, the enzyme was omitted from the reaction mixture. Following incubation SPA beads were added. After 30 min at 22° C. under shaking, the amount of [3H]5′AMP was quantified with a scintillation counter (MicroBeta, Perkin Elmer). The results were expressed as a percent inhibition of the control enzyme activity. The standard inhibitory reference compound was EHNA, which was tested in each experiment at several concentrations to obtain an inhibition curve from which its IC50 value was calculated. • Human phosphodiesterase-7A1 quantified by measuring the formation of 5′AMP from cAMP using a human recombinant enzyme expressed in Sf9 cells
The test compound (compound 72), reference compound or water (control) were added to a buffer containing 40 mM Tris/HCl (pH 7.4) and 8 mM MgCl2, 63 nM cAMP and 0.035 μCi [3H]cAMP. […] After 30 min at 22° C. under shaking, the amount of [3H]5′AMP was quantified with a scintillation counter (MicroBeta, Perkin Elmer). The results were expressed as a percent inhibition of the control enzyme activity. […]

The next test has as its target T3, human ENT1 (Homo sapiens, UniProt Q99808).
T3 sequence (Q99808 1-456): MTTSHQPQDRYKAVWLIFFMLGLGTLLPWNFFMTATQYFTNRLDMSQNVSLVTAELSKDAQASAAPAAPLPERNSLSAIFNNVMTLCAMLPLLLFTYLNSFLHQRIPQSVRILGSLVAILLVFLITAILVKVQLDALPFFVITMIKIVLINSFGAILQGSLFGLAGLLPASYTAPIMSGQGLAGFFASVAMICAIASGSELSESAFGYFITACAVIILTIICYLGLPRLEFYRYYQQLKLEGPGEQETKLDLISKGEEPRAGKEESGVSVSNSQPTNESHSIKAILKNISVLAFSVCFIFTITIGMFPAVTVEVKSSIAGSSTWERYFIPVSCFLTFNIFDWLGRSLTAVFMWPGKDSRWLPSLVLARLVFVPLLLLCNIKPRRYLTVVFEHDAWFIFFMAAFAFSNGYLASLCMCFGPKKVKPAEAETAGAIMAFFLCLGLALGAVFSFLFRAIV
Briefly: ENT1 binding assay (competition with Sahenta-DY647 on JAR cells). Details: JAR cells expressing ENT1 were bought from ATCC; host or cells: JAR cells. The following applies: binned IC50. An outline of the steps: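 JAR cells were incubated with test compounds and the fluorescent ligand Sahenta-DY647 in competition. Plates were washed twice by centrifugation (4 min, 400 rcf, 4 °C). Binding potency was derived from the final fluorescence.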

The target in test [3] is T4, Human phosphodiesterase-10A2 (Homo sapiens, UniProt Q9Y233).
T4 construct: host or cells: Sf9 cells
Briefly: PDE10A2 (h) assay. Format: biochemical. The method, then: as §1, with “trequinsin,” for “papaverine,”, “phosphodiesterase-10A2” for “phosphodiesterase-3A”, “cells.” for “cells”
The test compound (compound 72), reference compound or water (control) were added to a buffer containing 40 mM Tris/HCl (pH 7.4) and 8 mM MgCl2, 180 nM cAMP and 0.1 μCi [3H]cAMP. […] After 30 min at 22° C. under shaking, the amount of [3H]5′AMP was quantified with a scintillation counter (MicroBeta, Perkin Elmer). The results were expressed as a percent inhibition of the control enzyme activity. […]

T1 sequence (Q14432 whole entry): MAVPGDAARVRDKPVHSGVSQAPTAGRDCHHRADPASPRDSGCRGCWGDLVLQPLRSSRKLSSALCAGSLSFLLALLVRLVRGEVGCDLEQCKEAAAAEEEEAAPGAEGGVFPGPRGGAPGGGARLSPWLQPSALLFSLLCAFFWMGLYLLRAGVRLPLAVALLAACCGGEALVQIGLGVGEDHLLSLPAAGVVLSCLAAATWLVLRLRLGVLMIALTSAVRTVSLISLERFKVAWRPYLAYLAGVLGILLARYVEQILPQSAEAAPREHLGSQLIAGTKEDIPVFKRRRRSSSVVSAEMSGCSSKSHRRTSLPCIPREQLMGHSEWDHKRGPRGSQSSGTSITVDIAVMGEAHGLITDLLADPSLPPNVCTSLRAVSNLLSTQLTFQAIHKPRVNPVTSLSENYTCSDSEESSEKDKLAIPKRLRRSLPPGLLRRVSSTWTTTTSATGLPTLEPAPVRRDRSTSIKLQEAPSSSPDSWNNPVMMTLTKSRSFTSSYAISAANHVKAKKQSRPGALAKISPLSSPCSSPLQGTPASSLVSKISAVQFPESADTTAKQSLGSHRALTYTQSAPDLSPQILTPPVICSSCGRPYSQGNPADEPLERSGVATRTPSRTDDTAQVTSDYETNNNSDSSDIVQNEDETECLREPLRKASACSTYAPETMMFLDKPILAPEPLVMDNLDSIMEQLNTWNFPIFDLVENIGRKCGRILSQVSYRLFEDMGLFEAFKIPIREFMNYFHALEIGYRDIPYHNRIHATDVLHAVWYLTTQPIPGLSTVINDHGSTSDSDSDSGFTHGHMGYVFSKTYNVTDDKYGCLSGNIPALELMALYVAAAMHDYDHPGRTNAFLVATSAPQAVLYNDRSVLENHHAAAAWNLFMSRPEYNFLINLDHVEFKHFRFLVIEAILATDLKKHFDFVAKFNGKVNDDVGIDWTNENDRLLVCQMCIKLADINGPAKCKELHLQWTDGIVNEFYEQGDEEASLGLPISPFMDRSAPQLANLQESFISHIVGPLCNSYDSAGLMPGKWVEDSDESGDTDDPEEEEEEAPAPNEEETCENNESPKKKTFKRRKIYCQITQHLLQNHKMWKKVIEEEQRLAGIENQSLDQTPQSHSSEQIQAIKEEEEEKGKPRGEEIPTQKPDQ
T4 sequence (Q9Y233 267-1055): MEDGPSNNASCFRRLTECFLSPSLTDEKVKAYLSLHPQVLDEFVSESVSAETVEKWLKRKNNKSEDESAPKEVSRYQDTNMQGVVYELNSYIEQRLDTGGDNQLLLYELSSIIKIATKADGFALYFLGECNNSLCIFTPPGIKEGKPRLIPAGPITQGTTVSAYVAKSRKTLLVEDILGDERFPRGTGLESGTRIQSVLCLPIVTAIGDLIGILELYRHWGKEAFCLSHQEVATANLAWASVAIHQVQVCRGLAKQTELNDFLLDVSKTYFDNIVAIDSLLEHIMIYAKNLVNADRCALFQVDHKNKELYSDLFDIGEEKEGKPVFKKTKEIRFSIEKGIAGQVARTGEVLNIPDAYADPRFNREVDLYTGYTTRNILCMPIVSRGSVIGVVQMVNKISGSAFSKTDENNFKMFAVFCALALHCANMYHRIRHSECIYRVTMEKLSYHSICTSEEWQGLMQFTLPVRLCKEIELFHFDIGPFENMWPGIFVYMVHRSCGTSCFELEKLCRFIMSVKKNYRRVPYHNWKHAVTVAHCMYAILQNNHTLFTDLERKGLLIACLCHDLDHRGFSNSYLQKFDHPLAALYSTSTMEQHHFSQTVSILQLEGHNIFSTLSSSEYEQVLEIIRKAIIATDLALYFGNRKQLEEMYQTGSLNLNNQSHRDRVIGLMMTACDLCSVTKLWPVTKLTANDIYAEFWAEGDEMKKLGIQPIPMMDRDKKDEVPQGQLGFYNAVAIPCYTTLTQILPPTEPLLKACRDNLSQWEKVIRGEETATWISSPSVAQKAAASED
T2 sequence (Q13946 whole entry): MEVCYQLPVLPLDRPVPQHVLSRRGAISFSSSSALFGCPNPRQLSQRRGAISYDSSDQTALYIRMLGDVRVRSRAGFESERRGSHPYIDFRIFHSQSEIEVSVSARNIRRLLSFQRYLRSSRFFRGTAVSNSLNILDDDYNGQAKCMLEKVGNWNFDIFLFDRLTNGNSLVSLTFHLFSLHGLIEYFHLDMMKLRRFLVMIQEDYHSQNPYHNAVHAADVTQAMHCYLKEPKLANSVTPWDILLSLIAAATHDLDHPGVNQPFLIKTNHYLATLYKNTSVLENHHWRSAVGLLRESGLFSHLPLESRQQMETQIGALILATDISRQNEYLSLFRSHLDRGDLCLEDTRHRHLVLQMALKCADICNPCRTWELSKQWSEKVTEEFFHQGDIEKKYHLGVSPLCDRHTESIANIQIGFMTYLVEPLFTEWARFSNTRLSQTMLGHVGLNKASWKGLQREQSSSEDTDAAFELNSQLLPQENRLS

For orientation: pIC50 means −log10 of the IC50, conventionally taken in molar units. As for `COCCN(CCOC)c1nc(N2CCN(C)C(=O)C2)c2nc(N(CCOC)CCOC)nc(N3CCC(OC)CC3)c2n1` [Compound 72, 4-(2,6-bis(bis(2-methoxyethyl)amino)-8-(4-methoxypiperidin-1-yl)pyrimido[5,4-d]pyrimidin-4-yl)-1-methylpiperazin-2-one], the pIC50 in test [1] was under 5.00; in test [2], under 5.00; on human ENT1, over 7.00; in test [3], 5.00 to 6.00.
